Data from patent EP4168403B1 (priority 2020, dated 2021).

What was measured:
Human recombinant GSK-3β = biological target: T1, Human recombinant GSK-3β (Homo sapiens, UniProt P49841); experiment: GSK-3β inhibition in vitro assay (Kinase-Glo luminescence); type: biochemical; details: ATP 1 µM, GSM substrate 25 µM; mean ± SEM
T1 construct: purchased Millipore (Millipore Iberica S.A.U.)
Protocol: Human recombinant GSK-3β, prephosphorylated polypeptide substrate and white 96-well plates were purchased from Millipore (Millipore Iberica S.A.U.). Kinase-Glo Luminescent Kinase Assay was obtained from Promega (Promega Biotech Iberica, SL). Adenosinetriphosphate (ATP) and all other reagents were from Sigma-Aldrich. Assay buffer contained 50 mM 4-(2-hydroxyethyl)-1- piperazineethanesulfonic acid (HEPES) (pH 7.5), 1 mM ethylenediaminetetraacetic acid (EDTA), 1 mM ethylene glycol tetraacetic acid (EGTA), and 15 mM magnesium acetate. The in solution experiments for GSK-3β inhibition analysis were performed by following the method developed by Baki et al^42. In a typical assay, 10 µL of test compound (dissolved in DMSO at 1 mM concentration and diluted in advance in assay buffer to the desired concentration) and 10 µL (20 ng) of enzyme were added to each well in presence of 20 µL of assay buffer containing GSM substrate and ATP in order to reach a 25 µM and 1 µM final concentration respectively. […] After a 30 min incubation time at 30 °C, the enzymatic reaction was stopped by adding 40 µL of Kinase-Glo reagent. Glow-type luminescence was recorded after 10 min using a VictorX 3 PerkinElmer plate reader. […]. The linear regression parameters were determined and the IC50 extrapolated (GraphPad Prism 4.0, GraphPad Software Inc.).

mice = experiment: Object Recognition task (ORT), scopolamine-induced memory impairment; type: in vivo
Protocol: For behavioural studies, 50 swiss female 10-week-old weighing 25-30 g were used. Memory impairment was induced by the potent antimuscarinic drug scopolamine hydrobromide (0.5 mg/kg, Sigma) dissolved in saline buffer. To explore the potential of BIGI-3h as a cognitive enhancer, the compound was administered at a dose of 1 mg/kg and 10 mg/kg. For comparison, the antiamnesic effect of donepezil was tested (Tocris Bioscience, R&D Systems Inc.) at a dose of 1 mg/kg. Both products, 3h and donepezil, were dissolved in saline buffer containing 3.6% dimethyl sulfoxide. All drug solutions were independently prepared immediately before their use and were administered intraperitoneally in 10 mL/kg of vehicle volume. Different batches of mice were used for each experiment. The animals were distributed into 5 experimental groups (I-V): control groups (I) mice administered 3.6% DMSO in saline buffer, labelled as "control vehicle"; experimental groups (II-V) consisted of (II) mice administered scopolamine dissolved in 3.6% DMSO in saline buffer, labelled as "scop/DMSO," (III) mice co-administered scopolamine plus Donepezil, labelled as "Scopo/donep," (IV) and (V) mice co-administrated scopolamine plus BIGI-3h at 1mg/Kg and 10mg/Kg labelled respectively "Scopo/3h 1" "Scopo/3h 10".
Spontaneous object recognition was tested as described previously, 28 with slight modifications. All behavioural experiments took place during the light phase of the 12-h light/ dark cycle between 10 am and 3 pm to minimize the influence of circadian rhythm, and they were conducted with the investigators blind to treatments. […] The total time spent in active exploration of each object during T1 and T2 was determined with a computerized tracking system and image analyzer (Ethovision XT, Noldus Information Technology) that tracked the nose, centre and tail points of each mouse^45. As a criterion of active object exploration, it was measured the time spent by the animal directing its nose to the object at a distance of less than 2 cm and/or touching it with the vibrissae or nose. […]

T1 sequence (P49841 whole entry): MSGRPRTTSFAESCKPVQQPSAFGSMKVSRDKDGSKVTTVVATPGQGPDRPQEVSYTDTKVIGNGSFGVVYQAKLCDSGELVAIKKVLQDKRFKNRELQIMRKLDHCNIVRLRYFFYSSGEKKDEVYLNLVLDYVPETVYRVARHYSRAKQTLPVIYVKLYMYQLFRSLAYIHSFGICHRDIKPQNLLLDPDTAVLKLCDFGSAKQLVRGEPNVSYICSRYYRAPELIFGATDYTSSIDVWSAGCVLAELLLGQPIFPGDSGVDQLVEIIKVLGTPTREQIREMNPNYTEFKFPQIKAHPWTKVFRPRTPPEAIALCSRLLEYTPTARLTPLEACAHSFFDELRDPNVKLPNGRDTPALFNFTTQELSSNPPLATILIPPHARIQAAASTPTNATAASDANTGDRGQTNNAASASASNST

## CCOC(=O)C1=C(C)N(CCC2CCN(Cc3ccccc3)CC2)C(=O)NC1c1coc2c(Cl)cc(Cl)cc2c1=O (racemic) [BIGI-3h, ethyl 1-(2-(1-benzylpiperidin-4-yl)ethyl)-4-(6,8-dichloro-4-oxo-4H-chromen-3-yl)-6-methyl-2-oxo-1,2,3,4-tetrahydropyrimidine-5-carboxylate]
Human recombinant GSK-3β
  IC50: 29.1 µM
mice; 1 mg/kg intraperitoneally with scopolamine 0.5 mg/kg
  recognition index / discrimination index (Figure 5): reversed the short-term memory impairment induced by scopolamine
mice; 10 mg/kg intraperitoneally with scopolamine 0.5 mg/kg, **p < 0.01 vs scopo/DMSO
  recognition index / discrimination index (Figure 5): significantly improved discrimination index
